Earlier results in patent US20220001038A1, “CONJUGATES FOR DETECTION OF AXILLARY LYMPH NODE METASTASES” (H. LEE MOFFITT CANCER CENTER AND RESEARCH INSTITUTE, INC., priority 2017, published 2022).

Tested on: hCA IX and XII

[N-]=[N+]=NCCCCCCOc1ccc(-c2nn(-c3ccccc3)cc2-c2nc3ccccc3[nH]2)cc1 [compound 6]
affinity/selectivity for CAIX and CAXII (in words): inhibitor with hCA IX and XII selectivity
